# According to PubChem BioAssay (NCI):
#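 Five compound concentrations were applied to cells in 96-well plates for 48 hours; endpoints were derived by simple linear interpolation of the resulting dose-response curve. At the GI50, growth is halved. Definition used: TGI = concentration required for complete inhibition of growth.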
# Columns and labels:
# Test in all cases: growth of human tumour cells (NCI), 48 h
# LOX IMVI melanoma = test system: LOX IMVI melanoma
# NCI-H522 lung = test system: NCI-H522 lung
# MALME-3M melanoma = test system: MALME-3M melanoma
# A549 NSCLC = test system: A549 NSCLC
# NCI-H226 lung = test system: NCI-H226 lung
# SF-268 CNS = test system: SF-268 CNS
# HCC-2998 colon = test system: HCC-2998 colon
# IGROV1 ovarian = test system: IGROV1 ovarian
# BT-549 breast = test system: BT-549 breast
# MDA-MB-435 = test system: MDA-MB-435
Compound,TGI (LOX IMVI melanoma) [µM],TGI (NCI-H522 lung) [µM],TGI (MALME-3M melanoma) [µM],TGI (A549 NSCLC) [µM],TGI (NCI-H226 lung) [µM],TGI (SF-268 CNS) [µM],TGI (HCC-2998 colon) [µM],TGI (IGROV1 ovarian) [µM],TGI (BT-549 breast) [µM],TGI (MDA-MB-435) [µM],GI50 (LOX IMVI melanoma) [µM],GI50 (NCI-H522 lung) [µM],GI50 (MALME-3M melanoma) [µM],GI50 (A549 NSCLC) [µM],GI50 (NCI-H226 lung) [µM],GI50 (HCC-2998 colon) [µM],GI50 (IGROV1 ovarian) [µM],GI50 (BT-549 breast) [µM],GI50 (MDA-MB-435) [µM]
Cc1nc2cccc([N+](=O)[O-])c2n1CCCN(C)C,> 100,> 100,> 100,> 100,> 100,> 100,> 100,> 100,> 100,> 100,,,,,,,,,
NC(N)=NS(=O)(=O)c1ccc(NC(=O)c2ccc3nc4ccccc4c(N)c3c2)cc1,> 100,> 100,> 100,> 100,> 100,> 100,> 100,> 100,> 100,> 100,,,,,,,,,
COc1ccc(-c2cc(-c3ccccc3)nc3c2CC(=O)Nc2ccccc2-3)cc1OC,> 100,> 100,> 70.3,> 36.3,> 100,> 100,> 100,> 100,> 100,> 100,,,,,,,,,
CCOC(=O)c1cn2c(ccc3sc4ccccc4c(=O)c32)n1,> 100,> 100,> 100,> 100,> 100,> 100,> 100,> 100,> 100,> 100,,,,,,,,,
Cc1nc2ccccc2n1Cc1nnc2n1N=C(c1ccccc1)CS2,,71.2,> 100,> 100,> 100,> 100,68.1,20.1,80.8,> 100,,,,,,,,,
COc1ccc(/C=C2\CN(C)CC3C2=NN(c2ccccc2)C3c2ccc(OC)cc2)cc1 (centres undefined),> 100,> 100,> 100,> 100,> 100,> 100,> 100,> 100,> 100,> 100,,,,,,,,,
CCn1c(=O)c2c3cc(OC(C)=O)ccc3oc2c2ccc(OC(C)=O)cc21,,> 100,> 100,> 100,> 100,> 100,58.2,> 100,> 100,> 100,,,,,,,,,
O[C@H]1[C@H](O)[C@@H](Cn2nnc(-c3ccccc3)c2-c2ccccc2)OCO[C@@H]1Cn1nnc(-c2ccccc2)c1-c1ccccc1,5.85,21.5,29.6,13.5,> 45.4,25,6.31,14.2,23.7,22.8,,,,,,,,,
Nc1c2c(nc3ccccc13)CCCc1ccccc1-2,22.1,37.2,33.5,49,45.4,38.4,4.61,26.3,> 100,24.7,,,,,,,,,
C=CCn1c(-c2ccc(Cl)cc2Cl)csc1=Nc1c(C)n(C)n(-c2ccccc2)c1=O,23.9,29.6,31.4,23.1,33,33.4,29.1,31.5,26.4,25.2,,,,,,,,,
CC(=O)OCCOCCN1CCN(c2c(O)c3c(c(O)c2Cl)C(=O)C=CC3=O)CC1,1.66,0.583,0.96,3.94,5.89,3.62,4.31,3.04,2.21,1.95,,,,,,,,,
CCOP(C)(=O)/C(Cc1ccc(OC)c(OC)c1)=N\O (centres undefined),> 100,> 100,> 100,> 100,> 100,,> 100,> 100,> 100,> 100,,,,,,,,,
NC(=O)SCC(=O)Nc1ccc2ncccc2c1,> 100,69.3,> 100,> 100,> 100,> 100,> 100,> 100,> 100,> 100,,,,,,,,,
NC(=O)C1N=NSC1NC(=O)c1ccc([N+](=O)[O-])cc1 (centres undefined),,,> 100,> 100,> 100,> 100,> 100,> 100,> 100,> 100,,,,,,,,,
CCCCCCCCCCCCCCCCOc1ccc(/C=C/C2=[N+](CCCl)CCO2)cc1,> 100,> 100,> 100,> 100,> 100,,> 100,> 100,> 100,> 100,,,,,,,,,
NC(=S)N/N=C1\CCCCC1C(O)(C(F)(F)Cl)C(F)(F)Cl (centres undefined),> 10,> 10,> 10,> 10,> 10,> 10,> 10,> 10,> 10,> 10,,,,,,,,,
Cc1nn(-c2ccccc2)c2nc3ccc(Cl)cc3c(-c3ccccc3)c12,> 100,> 100,> 100,> 100,> 100,> 100,> 100,> 100,> 100,> 100,,,,,,,,,
Cc1cc(=O)c2ccccc2n1CCCCCCCCCCn1c(C)cc(=O)c2ccccc21,17.8,32.9,34.4,56.2,46.1,89.4,24.1,43.8,23,29.7,,,,,,,,,

Compound,TGI (LOX IMVI melanoma) [µM],TGI (NCI-H522 lung) [µM],TGI (MALME-3M melanoma) [µM],TGI (A549 NSCLC) [µM],TGI (NCI-H226 lung) [µM],TGI (SF-268 CNS) [µM],TGI (HCC-2998 colon) [µM],TGI (IGROV1 ovarian) [µM],TGI (BT-549 breast) [µM],TGI (MDA-MB-435) [µM],GI50 (LOX IMVI melanoma) [µM],GI50 (NCI-H522 lung) [µM],GI50 (MALME-3M melanoma) [µM],GI50 (A549 NSCLC) [µM],GI50 (NCI-H226 lung) [µM],GI50 (HCC-2998 colon) [µM],GI50 (IGROV1 ovarian) [µM],GI50 (BT-549 breast) [µM],GI50 (MDA-MB-435) [µM]
Cc1nc2ccccc2c(=O)n1/N=C/c1ccc(N(C)C)cc1,> 100,> 100,> 100,> 100,> 100,> 100,> 100,> 100,> 100,> 100,,,,,,,,,
O=C1C2CC=CCC2C(=O)N1n1c(Cc2ccccc2)n[nH]c1=O (centres undefined),> 100,> 100,> 100,> 100,> 100,> 100,> 100,> 100,> 100,> 100,,,,,,,,,
Nc1[nH]c(=S)c2c(N)n[nH]c2c1C(=O)Nc1ccc(Cl)cc1,40.1,> 100,> 100,> 100,> 100,> 100,> 100,> 100,> 100,> 100,,,,,,,,,
NC(=O)C1CCCN1C(=O)N(CCCl)N=O (centres undefined),> 100,> 100,> 100,> 100,> 100,> 100,> 100,> 100,> 100,> 100,,,,,,,,,
CNc1nc2c(C)ccc3[nH]c(N(C)C)nc3c-2n1,> 100,> 100,95.6,> 100,> 100,> 100,> 100,> 100,> 100,> 100,,,,,,,,,
Cc1cccc(C(=O)O)c1CC1NCCC2c3ccccc3NC12 (centres undefined),> 100,> 100,> 100,> 100,> 100,> 100,> 100,> 100,> 100,> 100,,,,,,,,,
O=C1CCCC[C@H]1C(O)CC1CC(=O)N(c2ccccc2)C(=O)C1 (some centres undefined),> 100,> 100,> 100,> 100,> 100,> 100,> 100,> 100,> 100,> 100,,,,,,,,,
O=C(c1ccccc1)c1nn(-c2ccccc2)c2nc3nc(-c4ccccc4)cc(=O)n3nc12,78.7,58.5,34.6,81.4,> 100,,60.2,> 100,52.2,48.3,25.8,20.6,0.0477,26.5,47.4,32.6,25.6,21.2,18.1
COCn1c(C)c(C)c2c(=O)oc(C)nc21,> 100,> 100,> 100,> 100,> 100,> 100,> 100,> 100,> 100,> 100,,,,,,,,,
Cc1cc(C)c2c(=O)cc(-c3ccc4ccccc4c3)[nH]c2n1,> 74.9,72.5,> 100,> 100,> 100,> 100,> 81.8,99.7,> 100,12,,,,,,,,,
O=c1c2c3c(sc2nc2n1N=C(c1ccc([N+](=O)[O-])cc1)CS2)CCCC3,> 100,> 100,> 100,> 100,> 100,> 100,> 100,> 100,> 100,> 100,,,,,,,,,
O=C1Nc2ccccc2/C1=C\c1c(Cl)nc2n1CCS2,> 100,40.5,62.1,> 100,,94.8,35.3,> 100,52.8,43.9,,,,,,,,,
COc1cc(C(=O)OCCn2[nH]c(-c3ccc(Cl)cc3)nc2=S)cc(OC)c1OC,> 100,> 100,> 100,> 100,> 100,> 100,> 100,,> 100,> 100,,,,,,,,,
CC(=O)c1ccccc1NS(=O)(=O)c1ccc2nc(C)n(NS(=O)(=O)c3ccccc3C(C)=O)c(=O)c2c1,> 100,> 100,> 100,,> 100,> 100,> 100,> 100,> 100,> 100,,,,,,,,,
COc1ccccc1/C=C/c1nc2ccccc2o1,> 10,> 10,> 10,> 10,> 10,> 10,> 10,> 10,> 10,> 10,,,,,,,,,
CC(=O)OC(=C(C#N)C#N)c1nccnc1C(C)=O,> 20,> 20,> 20,> 20,13.7,7.67,> 20,> 20,> 20,> 20,,,,,,,,,
O=S(=O)(/N=C(\NO)Nc1ccc(Cl)cc1)C1CC=C(c2ccon2)S1 (centres undefined),> 100,12.8,43.2,> 100,> 79.8,> 84.4,50.4,> 72.3,> 63,> 100,,,,,,,,,
